≈ marks a conversion by molar mass, not a printed value. Read-outs that look alike come from different tables or passages of the source.
How the values were obtained:
[1] = biological target: T1, CYP2C9 (Homo sapiens, UniProt P11712); test: CYP inhibition test (CYP2C9); format: in vitro ADME; conditions: pooled human liver microsomes; tolbutamide methyl-hydroxylation
T1 construct: The commercially available pooled human liver microsomes are used as an enzyme resource; from tissue; host or cells: pooled human liver microsomes
Text: (§1) The CYP inhibition test is a test to assess the inhibitory effect of a compound of the present invention towards typical substrate metabolism reactions on CYP enzymes in human liver microsomes. The marker reactions on human main five CYP enzymes (CYP1A2, 2C9, 2C19, 2D6, and 3A4) are used as follows: 7-ethoxyresorufin O-deethylation (CYP1A2), tolbutamide methyl-hydroxylation (CYP2C9), mephenytoin 4′-hydroxylation (CYP2C19), dextromethorphan O-demethylation (CYP2D6), and terfenadine hydroxylation (CYP3A4). The commercially available pooled human liver microsomes are used as an enzyme resource.
(§2) The reaction conditions were as follows: substrate, 0.5 μmol/L ethoxyresorufin (CYP1A2), 100 μmol/L tolbutamide (CYP2C9), 50 μmol/L, S-mephenytoin (CYP2C19), 5 μmol/L dextromethorphan (CYP2D6), 1 μmol/L terfenadine (CYP3A4): reaction time, 15 minutes: reaction temperature, 37° C.; enzyme, pooled human liver microsomes 0.2 mg protein/mL; concentrations of the compound of the present invention, 1, 5, 10, 20 μmol/L (four points).
(§3) Five kinds of substrates, human liver microsomes, and a compound solution of the present invention in […] Hepes buffer were added to a 96-well plate at the composition as described above as a reaction solution. NADPH as a cofactor was added to this 96-well plate in order to initiate metabolism reactions. After the incubation at 37° C.for […], a methanol/acetonitrile=1/1 (v/v) solution was added to stop the reaction. After the centrifugation at 3000 rpm for 15 minutes, resorufin (CYP1A2 metabolite) in the supernatant was quantified by a fluorescent plate reader, and hydroxytolbutamide (CYP2C9 metabolite), 4′-hydroxymephenytoin (CYP2C19 metabolite), dextrorphan (CYP2D6 metabolite), and terfenadine alcohol metabolite (CYP3A4 metabolite) in the supernatant were quantified by LC/MS/MS.
(§4) The sample adding DMSO to a reaction system instead of compound of the present invention solution was adopted as a control (100%) because DMSO was used as a solvent to dissolve a compound of the present invention. Remaining activity (%) was calculated at each concentration of a compound of the present invention, and IC50 value was calculated by reverse presumption by a logistic model using a concentration and an inhibition rate.

[2] = biological target: T2, CYP2C19 (Homo sapiens, UniProt P33261); test: CYP inhibition test (CYP2C19); format: in vitro ADME; conditions: pooled human liver microsomes; mephenytoin 4′-hydroxylation
T2 construct: The commercially available pooled human liver microsomes are used as an enzyme resource; from tissue; host or cells: pooled human liver microsomes
Text: as §1, §2, §3, §4

[3] = tested on: Aβ production in neuroblastoma SH-SY5Y cells (SH/APPwt); test: β-amyloid (Aβ) production inhibitory effect in cell: 384-well; format: cell-based; conditions: Homo sapiens, Assay format 384-well
Method: Neuroblastoma SH-SY5Y cells (SH/APPwt) with human wild-type β-APT excessively expressed therein were prepared at 4×10^5 cells/mL, and 50 μl portions thereof were inoculated into each well of a 384-well culture plate (Corning) added 0.5 μl of the test compound of the present invention (DMSO solution). The final DMSO concentration was 1%, and the amount of the cell culture was 50 μl. After the incubation was performed for 21 hours from the cell seeding, 5 μl of the culture supernatant was collected from each fraction. The amount of the Aβ in each fraction was measured.
The Aβ amount was measured as follows. 5 μl of a homogeneous time resolved fluoresrenee (HTRF) measurement reagent (Amyloid β1-40 peptide; CIS bio international) and 5 μl of the culture supernatant were put into a 384′well plate (a black plate: Corning) and mixed with each other, and then left standing overnight at 4° C. while the light was shielded. Then, the fluorescence intensity (620 nm and 665 nm) was measured with EnViston (Perkin Elmer life sciences).

[4] = Solubility test; format: physicochemical; conditions: for solubility kinetic at 1 h: kinetic from dmso stock; for solubility kinetic at 16 h: solubility in JP 2nd fluid B, 1% DMSO, *2: shaken for 1 hour at room temperature
Method: A 10 mmol/L solution of the compound was prepared with DMSO, and 2 μL of the compound of the present invention solution was added, respectively, to 198 μL of JP 1st fluid (water was added to 2.0 g of sodium chloride and 7.0 ml, of hydrochloric acid to reach 1000 mL) and JP 2nd fluid (See Table 4). The mixture was left standing for 16 hours at 25° C. or shaken for 1 hour at ruom temperature, and the mixture was vacuum-filtered. The […] was ten or one hundred-fold diluted with metbanol/water=1/1 (v/v) or MeCN/MeOH/H2O(=1/1/2), and the compound concent ration in the filtrate was measured with LC/MS or solid phase extraction (SPE)/MS by the absolute calibration method.

[5] = biological target: T3, CYP1A2 (Homo sapiens, UniProt P05177); test: CYP inhibition test (CYP1A2); format: in vitro ADME; conditions: pooled human liver microsomes; 7-ethoxyresorufin O-deethylation
T3 construct: The commercially available pooled human liver microsomes are used as an enzyme resource; from tissue; host or cells: pooled human liver microsomes
T3 sequence (P05177 1-516): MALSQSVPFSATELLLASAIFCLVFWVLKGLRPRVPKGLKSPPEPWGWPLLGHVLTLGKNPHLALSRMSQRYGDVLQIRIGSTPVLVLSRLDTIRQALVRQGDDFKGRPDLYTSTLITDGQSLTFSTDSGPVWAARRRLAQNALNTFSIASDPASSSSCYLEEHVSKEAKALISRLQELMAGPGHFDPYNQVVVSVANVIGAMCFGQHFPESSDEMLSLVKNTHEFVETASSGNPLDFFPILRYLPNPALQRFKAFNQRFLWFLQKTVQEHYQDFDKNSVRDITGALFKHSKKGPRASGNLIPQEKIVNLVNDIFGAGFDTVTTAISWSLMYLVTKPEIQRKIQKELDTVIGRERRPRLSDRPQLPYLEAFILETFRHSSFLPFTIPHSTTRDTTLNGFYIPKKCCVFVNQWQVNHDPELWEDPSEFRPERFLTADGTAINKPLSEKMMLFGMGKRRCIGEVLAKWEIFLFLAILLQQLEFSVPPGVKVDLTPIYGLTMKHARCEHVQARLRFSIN
Text: as §1, §2, §3, §4

[6] = biological target: T4, Recombinant human BACE1 (Homo sapiens, UniProt P56817); test: Assay of BACE1 inhibitory activity: 384-well; format: biochemical; conditions: Assay format 384-well
T4 construct: purchased R&D Systems
Method: 5 μL of substrate peptide solution (Biotin-XSEVNLDAEFRHDSGC-Eu: X=ε-amino-n-capronic acid, Eu=Europium eryplate) was added to each well of 384-well plate (a black plate: Corning), and after addition of 0.1 μl of the compound of the present invention (DMSO solution) and 5 μl of Recombinant human BACE1 (R&D Systems), the reaction mixture was incubated at 25° C. for 2 hours. The substrate peptide was synthesized by reacting Cryptate TBPCOOH mono SMP (CIS bio international) with Biotin-XSEVNLDAEFRHDSGC (Peptide Institute, Inc.).
After the incubation for reaction, 10 μl of 8.0 μg/ml Streptavidin-XL665 (CIS bio International) dissolved in phosphate buffer (150 mmol/L K2HPO4-KH2PO4, pH 7.0, 0.008% Triton X-100, 0.8 mol/L KF) was added to each well and left stand at 25° C. for 30 minutes.

[7] = biological target: T5, human ether-a-go-go related gene (hERG) channel (Homo sapiens, UniProt Q12809); test: hERG test; format: cell-based; conditions: % inhibition of IKr tail peak current at 3 uM; CHO cells expressing hERG
T5 construct: expressed in transfected cells; host or cells: CHO cells
Text: For the purpose of assessing risk of an electrocardiogram QT interval prolongation, effects on delayed rectifier K+ current (IKr), which plays an important role in the ventricular repolarization process of the compound of the present invention, was studied using CHO cells expressing human ether-a-go-go related gene (hERG) channel.
A cell was retained at a membrane potential of […] by whole cell patch clamp method using an automated patch clamp system (QPatch:Sophion Bioscience A/S). After application of leak potential at −50 mV, IKr induced by depolarization pulse stimulation at +20 mV for 2 seconds and, further, repolarization pulse stimulation at −50 mV for 2 seconds was recorded.

[8] = biological target: T6, CYP3A4 (Homo sapiens, UniProt P08684); test: CYP inhibition test (CYP3A4); format: in vitro ADME; conditions: pooled human liver microsomes; terfenadine hydroxylation
T6 construct: The commercially available pooled human liver microsomes are used as an enzyme resource; from tissue; host or cells: pooled human liver microsomes
Text: as §1, §2, §3, §4

[9] = Metabolic stability test; format: in vitro ADME; conditions: human liver microsomes, 37° C., 30 minutes, NADPH
Method: Using a commercially available pooled human liver microsomes, a compound of the present invention was reacted for a constant time, a remaining rate was calculated by comparing a reacted sample and an unreacted sample, thereby, a degree of metabolism in liver was assessed.
A reaction was performed (oxidative reaction) at 37° C. for 0 minute or 30 minutes in the presence of 1 mmol/L NADPH in 0.2 mL of a buffer (60 mmol/L Tris-HCl pH 7.4, 150 mmol/L potassium chloride, 10 mmol/L magnesium chloride) containing 0.5 mg protein/mL of human liver microsomes. After the reaction, 50 μL of the reaction solution was added to 100 μL of a methanol/acetonltrile=1/1 (v/v), mixed and centrifuged at 3000 rpm for 15 minutes. The compound of the present invention in the supernatant was quantified by LC/MS/MS or solid phase extraction (SPE)/MS, and a remaining amount of the compound of the present invention after the reaction area calculated, letting a compound amount at 0 minute reaction time to be 100%.

[10] = biological target: T7, CYP2D6 (Homo sapiens, UniProt P10635); test: CYP inhibition test (CYP2D6); format: in vitro ADME; conditions: pooled human liver microsomes; dextromethorphan O-demethylation
T7 construct: The commercially available pooled human liver microsomes are used as an enzyme resource; from tissue; host or cells: pooled human liver microsomes
Text: as §1, §2, §3, §4

[11] = JP 1st fluid, pH 1.2, simulated gastric fluid, read-out: JP1
[12] = JP 2nd fluid B, pH 6.8, aqueous buffer, read-out: JP2_μM

T2 sequence (P33261 whole entry): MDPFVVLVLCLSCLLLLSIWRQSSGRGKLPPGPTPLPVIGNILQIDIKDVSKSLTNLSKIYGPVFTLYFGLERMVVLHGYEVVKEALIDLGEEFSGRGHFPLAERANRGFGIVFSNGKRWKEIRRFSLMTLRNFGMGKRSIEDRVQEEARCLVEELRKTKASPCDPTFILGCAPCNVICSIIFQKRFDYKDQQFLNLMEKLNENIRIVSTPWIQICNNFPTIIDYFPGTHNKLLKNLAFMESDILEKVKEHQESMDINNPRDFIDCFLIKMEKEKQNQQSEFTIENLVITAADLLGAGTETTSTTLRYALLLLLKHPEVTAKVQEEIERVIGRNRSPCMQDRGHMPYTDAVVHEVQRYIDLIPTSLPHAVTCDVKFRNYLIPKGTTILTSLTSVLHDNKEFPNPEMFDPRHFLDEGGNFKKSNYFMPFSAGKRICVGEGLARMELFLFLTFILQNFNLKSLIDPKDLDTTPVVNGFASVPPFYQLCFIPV
T7 sequence (P10635 whole entry): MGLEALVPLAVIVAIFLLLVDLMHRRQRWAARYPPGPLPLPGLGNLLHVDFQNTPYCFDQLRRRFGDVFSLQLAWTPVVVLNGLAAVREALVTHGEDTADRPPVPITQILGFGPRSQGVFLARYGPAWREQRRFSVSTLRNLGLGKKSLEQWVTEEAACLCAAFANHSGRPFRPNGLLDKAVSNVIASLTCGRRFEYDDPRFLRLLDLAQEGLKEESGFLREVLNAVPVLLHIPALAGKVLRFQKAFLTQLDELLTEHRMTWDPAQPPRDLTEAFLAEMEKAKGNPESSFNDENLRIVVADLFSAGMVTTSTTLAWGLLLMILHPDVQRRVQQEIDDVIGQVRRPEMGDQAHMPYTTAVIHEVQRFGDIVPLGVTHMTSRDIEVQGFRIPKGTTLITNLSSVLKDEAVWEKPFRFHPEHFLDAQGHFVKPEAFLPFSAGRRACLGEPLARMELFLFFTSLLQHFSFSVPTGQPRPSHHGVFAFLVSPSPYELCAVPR
T4 sequence (P56817 46-501): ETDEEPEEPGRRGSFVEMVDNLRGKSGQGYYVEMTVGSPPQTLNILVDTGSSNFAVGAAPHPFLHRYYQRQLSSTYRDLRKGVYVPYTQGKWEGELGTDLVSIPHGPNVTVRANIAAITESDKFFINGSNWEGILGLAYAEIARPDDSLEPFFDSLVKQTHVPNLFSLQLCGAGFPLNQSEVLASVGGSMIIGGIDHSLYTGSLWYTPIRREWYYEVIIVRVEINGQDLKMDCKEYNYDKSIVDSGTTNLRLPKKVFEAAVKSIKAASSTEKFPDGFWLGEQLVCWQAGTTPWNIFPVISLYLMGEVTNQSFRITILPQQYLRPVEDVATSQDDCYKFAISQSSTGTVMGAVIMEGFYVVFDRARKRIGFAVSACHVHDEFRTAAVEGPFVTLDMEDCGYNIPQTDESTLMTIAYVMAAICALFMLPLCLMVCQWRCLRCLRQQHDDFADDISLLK
T6 sequence (P08684 whole entry): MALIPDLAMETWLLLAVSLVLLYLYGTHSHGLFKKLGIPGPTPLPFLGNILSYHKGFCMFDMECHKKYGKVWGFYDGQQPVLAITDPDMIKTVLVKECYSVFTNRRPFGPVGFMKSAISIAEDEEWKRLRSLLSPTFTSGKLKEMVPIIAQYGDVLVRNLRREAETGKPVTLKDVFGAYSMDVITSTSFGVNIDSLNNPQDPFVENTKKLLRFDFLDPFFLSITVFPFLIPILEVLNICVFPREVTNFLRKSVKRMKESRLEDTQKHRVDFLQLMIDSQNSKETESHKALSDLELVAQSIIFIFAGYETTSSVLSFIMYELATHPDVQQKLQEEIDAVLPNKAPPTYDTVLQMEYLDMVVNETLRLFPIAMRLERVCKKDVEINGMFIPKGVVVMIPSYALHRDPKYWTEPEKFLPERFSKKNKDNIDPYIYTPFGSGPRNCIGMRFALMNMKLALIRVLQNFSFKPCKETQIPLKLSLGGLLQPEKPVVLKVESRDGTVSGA
T1 sequence (P11712 whole entry): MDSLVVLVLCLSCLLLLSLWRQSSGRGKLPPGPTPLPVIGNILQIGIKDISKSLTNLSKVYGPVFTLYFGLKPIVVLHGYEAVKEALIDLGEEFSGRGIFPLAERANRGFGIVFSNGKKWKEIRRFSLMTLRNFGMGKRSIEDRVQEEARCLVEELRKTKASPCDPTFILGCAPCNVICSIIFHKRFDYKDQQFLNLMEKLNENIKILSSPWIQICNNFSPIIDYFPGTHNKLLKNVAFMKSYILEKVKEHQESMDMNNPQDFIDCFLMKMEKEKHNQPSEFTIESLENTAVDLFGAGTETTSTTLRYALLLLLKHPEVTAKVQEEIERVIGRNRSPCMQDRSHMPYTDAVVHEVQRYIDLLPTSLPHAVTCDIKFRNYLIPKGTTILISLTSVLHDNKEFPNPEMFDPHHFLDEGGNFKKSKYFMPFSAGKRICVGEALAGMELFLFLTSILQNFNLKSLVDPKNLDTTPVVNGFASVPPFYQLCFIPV
T5 sequence (Q12809 whole entry): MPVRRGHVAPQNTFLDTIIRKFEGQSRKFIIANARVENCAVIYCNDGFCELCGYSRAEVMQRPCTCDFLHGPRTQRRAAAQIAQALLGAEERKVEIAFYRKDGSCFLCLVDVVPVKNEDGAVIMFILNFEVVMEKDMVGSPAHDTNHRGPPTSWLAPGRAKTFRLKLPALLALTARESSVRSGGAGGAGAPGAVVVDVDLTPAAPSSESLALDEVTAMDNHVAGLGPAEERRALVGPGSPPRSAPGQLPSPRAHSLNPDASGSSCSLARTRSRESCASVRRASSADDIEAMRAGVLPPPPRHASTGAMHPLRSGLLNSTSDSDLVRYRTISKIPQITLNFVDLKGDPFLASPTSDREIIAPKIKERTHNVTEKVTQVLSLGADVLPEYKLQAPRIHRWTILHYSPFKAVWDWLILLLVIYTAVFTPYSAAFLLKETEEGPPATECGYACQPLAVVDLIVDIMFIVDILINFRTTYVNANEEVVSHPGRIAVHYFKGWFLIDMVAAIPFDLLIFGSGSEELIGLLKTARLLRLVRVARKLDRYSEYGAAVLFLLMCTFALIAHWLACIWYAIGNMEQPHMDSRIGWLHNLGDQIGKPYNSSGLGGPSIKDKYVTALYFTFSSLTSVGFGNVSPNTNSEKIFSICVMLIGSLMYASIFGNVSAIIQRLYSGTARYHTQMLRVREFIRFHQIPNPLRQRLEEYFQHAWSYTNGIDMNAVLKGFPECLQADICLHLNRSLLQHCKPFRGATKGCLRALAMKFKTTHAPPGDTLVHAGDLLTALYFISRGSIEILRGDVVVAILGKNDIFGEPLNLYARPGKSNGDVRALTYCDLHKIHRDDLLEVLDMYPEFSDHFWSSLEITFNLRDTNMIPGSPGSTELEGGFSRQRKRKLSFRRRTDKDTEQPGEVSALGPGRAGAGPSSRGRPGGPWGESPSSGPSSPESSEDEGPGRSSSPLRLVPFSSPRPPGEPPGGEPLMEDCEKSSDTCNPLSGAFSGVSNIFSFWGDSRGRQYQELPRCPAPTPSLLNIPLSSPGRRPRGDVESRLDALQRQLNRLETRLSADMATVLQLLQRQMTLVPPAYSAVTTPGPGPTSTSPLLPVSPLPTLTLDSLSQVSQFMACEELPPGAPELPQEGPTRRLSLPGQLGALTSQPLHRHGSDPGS

| Compound | IC50 [1] [µM] | IC50 [2] [µM] | IC50 [3] [nM] | solubility kinetic at 1 h [4, 11] [µM] | solubility kinetic at 16 h ([4]; read-out: JP2_μM) [µM] | IC50 [5] [µM] | IC50 [6] [nM] | hERG_3 uM_% [7] [%] | IC50 [8] [µM] | remaining % [9] [%] | IC50 [10] [µM] | solubility kinetic at 1 h [4, 12] [µM] |
| --- | --- | --- | --- | --- | --- | --- | --- | --- | --- | --- | --- | --- |
| C[C@]1(c2cc(NC(=O)c3ccc(OCF)cn3)ccc2F)N=C(N)SCC12CC(F)(F)C2 [Compound I-58] | ≥ 20 | ≥ 20 | 0.68 | > 50 | >50 | ≥ 20 | 13.7 | 58.6 | – | – | – | – |
| COCC(F)(F)[C@H]1OC(N)=N[C@](C)(c2cc(NC(=O)c3cnc(OC)cn3)ccc2F)[C@H]1F [Compound I-80] | ≥ 10 | ≥ 20 | 18 | > 50 | >50 | ≥ 20 | 35.5 | 8.9 | ≥ 10 | – | – | – |
| COc1ccc(C(=O)Nc2ccc(F)c([C@@]3(C)N=C(N)O[C@H](C(F)(F)C4CC4)[C@@H]3F)c2)nn1 [Compound I-95] | ≥ 10 | ≥ 20 | 450 | > 50 | >50.0 | ≥ 20 | 23.5 | – | ≥ 10 | 105 | – | – |
| Cc1cc(C#N)cnc1C(=O)Nc1ccc(F)c([C@@]2(C)N=C(N)O[C@H](C3(F)CC3)[C@@H]2F)c1 [Compound I-99] | ≥ 10 | ≥ 20 | 0.99 | > 50 | >50.0 | ≥ 20 | 24.5 | – | ≥ 20 | 89.4 | ≥ 10 | – |
| C[C@H]1SC(N)=N[C@](C)(c2cccc(NC(=O)c3ccc(C#N)cn3)c2)[C@H]1F [Compound I-102] | ≥ 20 | ≥ 20 | 1.6 | > 50 | >50.0 | ≥ 20 | 23.4 | – | ≥ 20 | 78.1 | ≥ 20 | – |
| Cc1cc(C#N)cnc1C(=O)Nc1cccc([C@@]2(C)N=C(N)S[C@H](C)[C@@H]2F)c1 [Compound I-105] | ≥ 20 | ≥ 20 | 0.74 | 47.3 (≈ 18.8 µg/mL) | – | ≥ 20 | 30.5 | – | ≥ 20 | 56.8 | ≥ 20 | > 50 |
| C[C@H]1SC(N)=N[C@](C)(c2cccc(NC(=O)c3ccc(OCF)cn3)c2)[C@H]1F [Compound I-107] | ≥ 10 | ≥ 20 | 0.42 | 33.5 (≈ 13.6 µg/mL) | – | ≥ 20 | 23.5 | – | ≥ 20 | 64.2 | ≥ 20 | > 50 |
| C[C@H]1SC(N)=N[C@](C)(c2cc(NC(=O)c3ncc(C#N)cc3F)ccc2F)[C@H]1F [Compound I-110] | ≥ 10 | ≥ 20 | 1.1 | 42.1 (≈ 17.7 µg/mL) | – | ≥ 20 | 22.5 | – | ≥ 20 | 81.1 | ≥ 10 | > 50 |
| C[C@@H]1SC(N)=N[C@](C)(c2cc(NC(=O)c3ccc(C#N)cn3)ccc2F)[C@@H]1F [Compound I-113] | ≥ 20 | ≥ 20 | 40 | > 50 | – | ≥ 20 | 164 | – | ≥ 20 | – | ≥ 20 | 48.6 (≈ 19.5 µg/mL) |

Reference: patent US20170073337A1, “DIHYDROTHIAZINE AND DIHYDROOXAZINE DERIVATIVES HAVING BACE1 INHIBITORY ACTIVITY” (Shionogi & Co., Ltd., priority 2014, published 2017)
